According to PMC3608651, “A Broad Profile of Co-Dominant Epitopes Shapes the Peripheral Mycobacterium tuberculosis Specific CD8+ T-Cell Immune Response in South African Patients with Active Tuberculosis” (PLoS ONE, 2013):
Like-named read-outs stand apart in the source and are kept apart here. Marks after values point to notes of the source that are not given here.

Columns and labels:
HLA-A*02:01 [1] = biological target: T1, HLA-A*02:01 (Homo sapiens, UniProt P04439, D140Y/D185E/D98H/E176V/E277Q/G131W/G231S/I119V/I121R/I166T/I218V/L300P/L318F/N151K/N90K/P208A/P217A/Q86G/Q94H/R138H/R169H/T345S); settings: cited from earlier work
HLA-B*58:01 [2] = biological target: T2, HLA-B*58:01 (Homo sapiens, UniProt P01889, A329T/C349S/D201E/D98Y/E176V/E187L/E204Q/E69T/G107R/I218V/I90N/K202T/L105A/L119I/N104I/N87E/Q89R/Q94S/R106L/R155S/R180L/R86G/S101N/S121R/S35A/S48A/T118I/V127L/V306I/V36M/Y140S/Y91M); assay type: binding; settings: time points 0-8 h
HLA-B*58:01 [3] = biological target: T2, HLA-B*58:01; assay type: binding
HLA-B*58:01 [4] = biological target: T2, HLA-B*58:01; assay type: binding; settings: percent relative the binding of positive control peptide […]; duplicated experiments; positive binder >40%
HLA-A*02:01 [5] = biological target: T1, HLA-A*02:01; settings: percent relative the binding of a positive control peptide, cited from earlier work
HLA-A*02:01 [6] = biological target: T1, HLA-A*02:01; settings: cited from earlier work; remark: listed apart in the source
HLA-A*30:02 [7] = biological target: T3, HLA-A*30:02 (Homo sapiens, UniProt P04439, D101N/D140H/D185E/E176R/F33S/G80R/H175R/K168Q/Q94H/R138E/R41S/V100E); settings: cited from earlier work
HLA-A*30:02 [8] = biological target: T3, HLA-A*30:02; settings: cited from earlier work; remark: listed apart in the source
HLA-A*30:02 [9] = biological target: T3, HLA-A*30:02; settings: percent relative the binding of a positive control peptide, cited from earlier work
HLA-C*07:01 [10] = biological target: T4, HLA-C*07:01 (Homo sapiens, UniProt P10321, K90N/S123Y); assay: affinity assay (ED50); assay type: binding
HLA-A*02:01 [11] = biological target: T1, HLA-A*02:01; assay type: binding
HLA-A*30:02 [12] = biological target: T3, HLA-A*30:02; assay type: binding; settings: percent relative the binding of positive control peptide […]; duplicated experiments; positive binder >40%
HLA-A*30:02 [13] = biological target: T3, HLA-A*30:02; assay type: binding
HLA-B*07:02 = HLA-B*07:02 (Homo sapiens, UniProt P01889); assay type: binding
HLA-A*02:01 [14] = biological target: T1, HLA-A*02:01; assay type: binding; remark: listed apart in the source
HLA-A*30:01 = HLA-A*30:01 (Homo sapiens, UniProt P04439, D140H/D185E/E176W/F33S/G80R/H175R/K168Q/R138E/R41S); assay type: binding; settings: percent relative the binding of positive control peptide […]; duplicated experiments; positive binder >40%
HLA-A*24:02 [15] = biological target: T5, HLA-A*24:02 (Homo sapiens, UniProt P04439, D101N/D140Y/D185E/E176V/E190D/F33S/G103R/G107R/I119L/I121M/I306V/K335N/L105A/L180Q/L300P/N151K/N90K/Q86E/Q94H/R106L/R138H/R89G/T104I/T345S/V100E/W191G/Y123F); assay type: binding
HLA-A*68:01 [16] = biological target: T6, HLA-A*68:01 (Homo sapiens, UniProt P04439, A269V/D185E/E176V/E277Q/E87N/F33Y/G231S/I121M/I166T/I218V/L180W/L300P/L318F/N151K/P208A/P217A/Q86R/R169H/T345S); assay type: binding; settings: percent relative the binding of positive control peptide […]; duplicated experiments; positive binder >40%
HLA-A*24:02 [17] = biological target: T5, HLA-A*24:02; assay type: binding; remark: listed apart in the source
HLA-A*30:02 [18] = biological target: T3, HLA-A*30:02; assay type: binding; settings: time points 0-8 h
HLA-A*24:02 [19] = biological target: T5, HLA-A*24:02; assay type: binding; remark: listed apart in the source
HLA-C*07:01 [20] = biological target: T4, HLA-C*07:01; assay: off-rate assay (t1/2); assay type: binding; settings: time points 0-8 h
HLA-C*07:01 [21] = biological target: T4, HLA-C*07:01; assay type: binding; settings: percent relative the binding of positive control peptide […]; duplicated experiments; positive binder >40%
HLA-A*02:01 [22] = biological target: T1, HLA-A*02:01; assay type: binding; remark: listed apart in the source
HLA-A*68:01 [23] = biological target: T6, HLA-A*68:01; assay type: binding
HLA-A*68:01 [24] = biological target: T6, HLA-A*68:01; assay type: binding; settings: time points 0-8 h
[25] = percent relative the binding of positive control peptide […], duplicated experiments, positive binder >40%
[26] = percent relative the binding of positive control peptide […], plate-bound monomer 0.5 µg/ml, duplicated experiments, positive binder >40%

QSLGAEIAV [Rv0288_26–34wt]
Aff A*02:01 (ED50) (HLA-A*02:01 [1]): 2e-06 M | O-rate B*58:01 (t1/2) (HLA-B*58:01 [2]): 6 min | Aff B*58:01 (ED50) (HLA-B*58:01 [3]): 0.0002 M | Bind B*58:01 (HLA-B*58:01 [4]): 30% | Bind A*02:01 (HLA-A*02:01 [5]; […]): 48* percent

SLGAEIAVE [Rv0288_27–35wt]
Aff A*02:01 (ED50) (HLA-A*02:01 [1]; wild-type epitopes marked *): 1e-05 M | Bind A*02:01 (HLA-A*02:01 [5]; wild-type epitopes marked *): 28* percent | O-rate A*02:01 (t1/2) (HLA-A*02:01 [6]; wild-type epitopes marked *): 1.8 h

GHAGDMAGY [Rv0288_13–21wt]
Aff A*30:02 (ED50) (HLA-A*30:02 [7]; wild-type epitopes marked **): 40 nM | O-rate A*30:02 (t1/2) (HLA-A*30:02 [8]; wild-type epitopes marked **): 1.3 h | Bind A*30:02 (HLA-A*30:02 [9]; wild-type epitopes marked **): 71** percent

MLGHAGDMA [Rv0288_11–19wt]
Aff A*02:01 (ED50) (HLA-A*02:01 [1]; wild-type epitopes marked *): 7e-07 M | Bind A*02:01 (HLA-A*02:01 [5]; wild-type epitopes marked *): 67* percent | O-rate A*02:01 (t1/2) (HLA-A*02:01 [6]; wild-type epitopes marked *): 1.4 h

YQSGLSIVM
Aff C*07:01 (ED50) (HLA-C*07:01 [10]): 7E -09 M | O-rate A*02:01 (t1/2) (HLA-A*02:01 [11]): 3.1 h | Bind A*30:02 (HLA-A*30:02 [12]): 123% | Aff A*30:02 (ED50) (HLA-A*30:02 [13]): 8E -07 M | Bind B*07:02 (HLA-B*07:02): 2 | Aff A*02:01 (ED50) (HLA-A*02:01 [14]): 50 nM | Bind A*30:01 (HLA-A*30:01): 27% | Bind B*58:01 (HLA-B*58:01 [4]): 0% | Bind A*24:02 (HLA-A*24:02 [15]): 59 | Bind A*68:01 (HLA-A*68:01 [16]): 7% | Aff A*24:02 (ED50) (HLA-A*24:02 [17]): 500 nM | O-rate A*30:02 (t1/2) (HLA-A*30:02 [18]): 0.4 h | O-rate A*24:02 (t1/2) (HLA-A*24:02 [19]): 1.5 h | O-rate C*07:01 (t1/2) (HLA-C*07:01 [20]): 18 min | Bind C*07:01 (HLA-C*07:01 [21]): 68% | Bind A*02:01 (HLA-A*02:01 [22]): 142

AYHAMSSTH [Rv0288_68–76wt]
Aff A*30:02 (ED50) (HLA-A*30:02 [7]; wild-type epitopes marked **): 300 nM | O-rate A*30:02 (t1/2) (HLA-A*30:02 [8]; wild-type epitopes marked **): 1.2 h | Bind A*30:02 (HLA-A*30:02 [9]; wild-type epitopes marked **): 70** percent

MAGSSAMIL
Aff C*07:01 (ED50) (HLA-C*07:01 [10]): 1E -08 M | O-rate A*02:01 (t1/2) (HLA-A*02:01 [11]; time points 0-8 h, time when 50% of peptide has dissociated): 0.4 h | O-rate B*58:01 (t1/2) (HLA-B*58:01 [2]): 48 min | Bind A*30:02 (HLA-A*30:02 [12]): 13% | Aff B*58:01 (ED50) (HLA-B*58:01 [3]): 9e-09 M | Bind B*07:02 (HLA-B*07:02; [25]): 57% | Aff A*02:01 (ED50) (HLA-A*02:01 [14]; […], peptide quantity for 50% binding saturation): 700 nM | Bind A*30:01 (HLA-A*30:01): 0% | Bind B*58:01 (HLA-B*58:01 [4]): 55% | Bind A*24:02 (HLA-A*24:02 [15]; [25]): 26% | Bind A*68:01 (HLA-A*68:01 [16]): 0% | O-rate C*07:01 (t1/2) (HLA-C*07:01 [20]): 30 min | Bind C*07:01 (HLA-C*07:01 [21]): 94% | Bind A*02:01 (HLA-A*02:01 [22]; [26]): 54%

SQIMYNYPA [Rv0288_2–10wt]
Aff A*02:01 (ED50) (HLA-A*02:01 [1]): 4E-07* M | Aff A*30:02 (ED50) (HLA-A*30:02 [7]): 2000 nM | Bind A*02:01 (HLA-A*02:01 [5]; […]): 78* percent | O-rate A*30:02 (t1/2) (HLA-A*30:02 [8]): 0.3 h | Bind A*30:02 (HLA-A*30:02 [9]; […]): 46** percent | O-rate A*02:01 (t1/2) (HLA-A*02:01 [6]): 4.9* h

SSAMILAAY
Aff C*07:01 (ED50) (HLA-C*07:01 [10]): 4E -07 M | Aff A*68:01 (ED50) (HLA-A*68:01 [23]): 1E -07 M | O-rate B*58:01 (t1/2) (HLA-B*58:01 [2]): 48 min | Bind A*30:02 (HLA-A*30:02 [12]): 118% | Aff B*58:01 (ED50) (HLA-B*58:01 [3]): 2E -08 M | Aff A*30:02 (ED50) (HLA-A*30:02 [13]): 7E -09 M | Bind B*07:02 (HLA-B*07:02; [25]): 4% | Bind A*30:01 (HLA-A*30:01): 0% | Bind B*58:01 (HLA-B*58:01 [4]): 90% | O-rate A*68:01 (t1/2) (HLA-A*68:01 [24]): 1.8 h | Bind A*24:02 (HLA-A*24:02 [15]; [25]): 36% | Bind A*68:01 (HLA-A*68:01 [16]): 101% | O-rate A*30:02 (t1/2) (HLA-A*30:02 [18]): 3.6 h | O-rate C*07:01 (t1/2) (HLA-C*07:01 [20]): 96 min | Bind C*07:01 (HLA-C*07:01 [21]): 41% | Bind A*02:01 (HLA-A*02:01 [22]; [26]): 0%
